# US11813277B2, “Methods and agents for modulating inflammation” (The Regents of the University of California, priority 2018, dated 2023)
# Experiments:
# Assay type in all cases: cell-based
# A549 cells = experiment: Palmitate-driven respiration in intact A549 cells (Seahorse); conditions: intact A549, albumin-buffered palmitate
# Protocol: All respirometry studies were conducted in either a Seahorse XF96 or XFe96 Analyzer. All experiments were conducted at 37° C., and at pH 7.4 (intact cells) or 7.2 (permeabilized cells and isolated mitochondria). Calculation of respiratory parameters was made according to standard protocols (Divakaruni, A. S., Paradyse, A., Ferrick, D. A., Murphy, A. N., and Jastroch, M. (2014a) Analysis and interpretation of microplate-based oxygen consumption and pH data. Meth. Enzym 547, 509-54), and all rates were corrected for non-mitochondrial respiration/background signal by subtracting the oxygen consumption rate insensitive to rotenone plus antimycin A.
# Palmitate oxidation in intact cells (FIG. 1A, FIG. 1B) was assessed by measuring palmitate-driven respiration that was sensitive to low concentrations of etomoxir (Rogers, G. W., Nadanaciva, S., Swiss, R., Divakaruni, A. S., and Will, Y. (2014) Assessment of fatty acid beta oxidation in cells and isolated mitochondria. Curr. Protoc. Toxicol. 60, 25.3, 1-19). […] Respiration was measured under basal conditions as well as after injection of 2 μM oligomycin, two sequential additions of 1 μM FCCP, followed by 0.2 μM rotenone with 1 μM antimycin A. Etomoxir was added to the assay medium 30 min. prior to measurements of basal respiratory rates.
# CPT-1 [1] = target: T1, CPT-1 (Mus musculus, UniProt P97742); experiment: Palmitoyl CoA-driven respiration in permeabilized BMDMs
# T1 construct: endogenous in cells; host or cells: mouse bone marrow-derived macrophages (BMDMs)
# T1 sequence (P97742 1-773): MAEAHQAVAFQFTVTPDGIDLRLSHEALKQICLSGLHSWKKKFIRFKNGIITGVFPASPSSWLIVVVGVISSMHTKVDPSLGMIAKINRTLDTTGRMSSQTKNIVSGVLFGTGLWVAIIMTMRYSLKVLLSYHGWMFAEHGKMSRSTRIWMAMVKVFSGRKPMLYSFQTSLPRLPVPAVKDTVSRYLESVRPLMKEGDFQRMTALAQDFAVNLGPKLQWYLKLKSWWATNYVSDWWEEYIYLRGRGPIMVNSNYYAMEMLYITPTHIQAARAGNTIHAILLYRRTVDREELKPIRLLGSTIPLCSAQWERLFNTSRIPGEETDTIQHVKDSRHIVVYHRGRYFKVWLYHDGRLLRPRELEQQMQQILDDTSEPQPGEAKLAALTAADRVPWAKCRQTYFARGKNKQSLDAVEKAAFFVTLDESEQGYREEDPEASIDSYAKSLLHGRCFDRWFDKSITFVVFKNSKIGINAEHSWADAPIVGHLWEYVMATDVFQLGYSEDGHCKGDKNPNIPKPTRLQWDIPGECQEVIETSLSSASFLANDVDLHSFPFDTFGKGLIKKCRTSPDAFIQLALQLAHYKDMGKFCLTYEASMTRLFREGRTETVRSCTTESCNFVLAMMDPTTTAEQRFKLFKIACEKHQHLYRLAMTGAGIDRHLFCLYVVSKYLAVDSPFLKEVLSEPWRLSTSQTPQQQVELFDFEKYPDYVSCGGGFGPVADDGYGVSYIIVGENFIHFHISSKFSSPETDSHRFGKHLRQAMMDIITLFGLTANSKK
# CPT-1 [2] = target: T2, CPT-1 (Homo sapiens, UniProt P50416); experiment: Palmitoyl CoA-driven respiration in permeabilized A549 cells; set-up: endogenous in cells; host or cells: A549 (A6)
# T2 sequence (P50416 1-773): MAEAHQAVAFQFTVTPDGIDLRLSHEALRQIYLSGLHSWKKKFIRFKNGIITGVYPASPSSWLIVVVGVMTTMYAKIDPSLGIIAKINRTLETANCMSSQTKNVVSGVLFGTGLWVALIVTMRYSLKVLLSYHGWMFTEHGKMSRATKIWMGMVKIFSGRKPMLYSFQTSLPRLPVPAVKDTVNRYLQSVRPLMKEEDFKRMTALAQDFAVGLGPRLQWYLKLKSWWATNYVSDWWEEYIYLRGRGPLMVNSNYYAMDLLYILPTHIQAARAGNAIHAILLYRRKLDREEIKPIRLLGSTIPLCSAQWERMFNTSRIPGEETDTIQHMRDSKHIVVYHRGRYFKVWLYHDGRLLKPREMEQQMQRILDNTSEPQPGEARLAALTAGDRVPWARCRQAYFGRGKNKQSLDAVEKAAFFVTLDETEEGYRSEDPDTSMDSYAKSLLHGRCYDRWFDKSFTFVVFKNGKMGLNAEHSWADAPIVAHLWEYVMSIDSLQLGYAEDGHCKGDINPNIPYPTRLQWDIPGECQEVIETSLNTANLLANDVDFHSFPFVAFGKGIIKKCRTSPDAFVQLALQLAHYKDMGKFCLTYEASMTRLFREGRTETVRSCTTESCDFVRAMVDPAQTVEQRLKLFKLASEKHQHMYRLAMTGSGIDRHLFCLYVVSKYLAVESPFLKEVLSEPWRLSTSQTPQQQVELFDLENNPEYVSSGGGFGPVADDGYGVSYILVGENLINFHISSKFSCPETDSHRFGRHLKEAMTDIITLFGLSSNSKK
smiles,measurement,setting,value
CCOC(=O)[C@@]1(CCCCCCOc2ccc(Cl)cc2)CO1 [etomoxir],half-maximal inhibitory concentration (EC50) for uncoupler-stimulated respiration,A549 cells,sub-micromolar
same,sensitivity of respiration to 3 μM etomoxir,CPT-1 [1]; conditional CPT KO BMDMs,largely absent
same,"EC50, FCCP-stimulated palmitoyl CoA-driven respiration",CPT-1 [1]; permeabilized BMDMs,nanomolar
same,concentration of saturable effect,CPT-1 [1]; permeabilized BMDMs,less than 3 μM
same,"EC50, FCCP-stimulated palmitoyl CoA-driven respiration",CPT-1 [2],nanomolar
same,concentration of saturable effect,CPT-1 [2],less than 3 μM
